Measured values: PubChem BioAssay (NCI)
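Cultured in 96-well plates, cells were exposed to test compound for 48 hours across five concentrations. At the GI50, growth is halved. TGI: total growth inhibition.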

Assays:
Assay in all cases: NCI-60 cell line screen, 48 h
SF-268 CNS = test system: SF-268 CNS
RXF 393 renal = test system: RXF 393 renal
UACC-62 melanoma = test system: UACC-62 melanoma
OVCAR-3 ovarian = test system: OVCAR-3 ovarian
K-562 leukemia = test system: K-562 leukemia
HCT-15 colon = test system: HCT-15 colon
UACC-257 melanoma = test system: UACC-257 melanoma
786-0 renal = test system: 786-0 renal
NCI-H522 lung = test system: NCI-H522 lung
HCC-2998 colon = test system: HCC-2998 colon

| SMILES | TGI (SF-268 CNS) | TGI (RXF 393 renal) | TGI (UACC-62 melanoma) | TGI (OVCAR-3 ovarian) | TGI (K-562 leukemia) | TGI (HCT-15 colon) | TGI (UACC-257 melanoma) | TGI (786-0 renal) | TGI (NCI-H522 lung) | TGI (HCC-2998 colon) | GI50 (SF-268 CNS) | GI50 (RXF 393 renal) | GI50 (UACC-62 melanoma) | GI50 (OVCAR-3 ovarian) | GI50 (K-562 leukemia) | GI50 (HCT-15 colon) | GI50 (UACC-257 melanoma) | GI50 (786-0 renal) | GI50 (NCI-H522 lung) | GI50 (HCC-2998 colon) |
| --- | --- | --- | --- | --- | --- | --- | --- | --- | --- | --- | --- | --- | --- | --- | --- | --- | --- | --- | --- | --- |
| O=C(CCCn1ccnc1[N+](=O)[O-])NCCn1cncc1[N+](=O)[O-] | > 100 µM | > 100 µM | > 100 µM | > 100 µM | > 100 µM | > 100 µM | > 100 µM | > 100 µM | > 100 µM |  |  |  |  |  |  |  |  |  |  |  |
| O=c1nc2occc2cn1C1CC(O)C(CO)O1 (stereo unspecified) | > 100 µM | > 100 µM | > 100 µM | > 100 µM | > 100 µM | > 100 µM | > 100 µM | > 100 µM |  | > 100 µM |  |  |  |  |  |  |  |  |  |  |
| COC(=O)C(C(=O)C(=O)Nc1cccc(OC)c1)c1cnc2ccccc2n1 (stereo unspecified) | > 100 µM | > 100 µM | > 100 µM |  | > 100 µM | > 100 µM | > 100 µM | > 100 µM | > 100 µM | > 100 µM |  |  |  |  |  |  |  |  |  |  |
| COC(=O)C1=C(C)N(NC(=O)c2ccccc2)C(C)(O)C12CCOC2=O (stereo unspecified) | > 100 µM |  | > 100 µM | > 100 µM | > 100 µM | > 100 µM | > 100 µM | 2.68 µM | > 100 µM | > 100 µM |  |  |  |  |  |  |  |  |  |  |
| CC(=O)OC1Oc2ccccc2-c2oc(=O)c(-c3cc(=O)oc4cc(O)ccc34)cc21 (stereo unspecified) | 80.3 µM | 20.6 µM | 39 µM | 41.4 µM | > 100 µM | 96.4 µM | 79 µM | 38.4 µM | 43 µM |  | 26.2 µM | 4.5 µM | 18.8 µM | 13.8 µM | 9.45 µM | 21.3 µM | 23.9 µM | 16.2 µM | 16.9 µM |  |
| O=C(Nc1ccc(OS(=O)(=O)c2ccccc2)cc1)C12CC3CC(CC(C3)C1)C2 | > 100 µM | > 100 µM | > 100 µM |  | > 100 µM | > 100 µM | > 100 µM | > 100 µM | > 100 µM | > 100 µM | > 100 µM | 5.12 µM | 6.47 µM |  | 0.576 µM | 0.997 µM | 13.5 µM | 3.8 µM | 4.36 µM | 5.48 µM |
| Cc1nnc(S(=O)(=O)c2ccc(N=Nc3c(N)nc(N)nc3N)cc2)s1 | > 100 µM | > 100 µM | > 100 µM | > 100 µM | > 100 µM | > 100 µM | > 100 µM | > 100 µM | > 100 µM |  |  |  |  |  |  |  |  |  |  |  |
| O=C1OC(c2ccccc2)=N/C1=C/C=C/c1ccco1 | > 100 µM | > 100 µM | > 100 µM | > 100 µM | > 100 µM | > 100 µM |  | > 100 µM | > 100 µM | > 100 µM |  |  |  |  |  |  |  |  |  |  |
| OCCN1CN(CCO)CN(c2nc(N3CN(CCO)CN(CCO)C3)nc(N3CN(CCO)CN(CCO)C3)n2)C1 | 2.04 ng/mL |  | 3.31 ng/mL | 6300 ng/mL |  |  | 3.14 ng/mL | 0.968 ng/mL | 2.91 ng/mL |  |  |  | 0.991 ng/mL | 2.2 ng/mL |  |  | 1.42 ng/mL | 0.631 ng/mL | 1.04 ng/mL |  |
